We go through 19 compounds from patent publication US20230146675A1, “PYRIMIDO[5,4-d]PYRIMIDINE DERIVATIVES AS ENT INHIBITORS FOR THE TREATMENT OF CANCERS, AND COMBINATION THEREOF WITH ADENOSINE RECEPTOR ANTAGONISTS” (ITEOS BELGIUM SA, priority 2020, published 2023).

Where only a bound is given, the exact number is not on record here.

The term IC50 denotes the point on the concentration scale where inhibition reaches its midpoint. Read a low IC50 as greater potency.

In this experiment the target is T1, human ENT1 (Homo sapiens, UniProt Q99808).
T1 sequence (Q99808 1-456): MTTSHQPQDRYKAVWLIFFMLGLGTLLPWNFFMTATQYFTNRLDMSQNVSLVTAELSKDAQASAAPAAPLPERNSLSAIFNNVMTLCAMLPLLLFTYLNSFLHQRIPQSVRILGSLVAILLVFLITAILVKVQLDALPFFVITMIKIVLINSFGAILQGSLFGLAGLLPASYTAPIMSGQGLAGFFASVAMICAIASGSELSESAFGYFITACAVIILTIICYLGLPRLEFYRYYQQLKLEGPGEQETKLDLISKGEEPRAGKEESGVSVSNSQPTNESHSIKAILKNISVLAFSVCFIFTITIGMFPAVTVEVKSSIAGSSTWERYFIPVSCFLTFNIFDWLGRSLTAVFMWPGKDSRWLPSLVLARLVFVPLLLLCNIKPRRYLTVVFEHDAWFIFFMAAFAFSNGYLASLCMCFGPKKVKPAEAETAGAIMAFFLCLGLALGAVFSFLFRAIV
Description: ENT1 binding assay (competition with Sahenta-DY647 on JAR cells). Details: JAR cells expressing ENT1 were bought from ATCC; host or cells: JAR cells. As to conditions: binned IC50. In short, it runs like this:
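JAR cells were incubated with test compounds and the fluorescent ligand Sahenta-DY647 in competition. Plates were washed twice by centrifugation (4 min, 400 rcf, 4 °C). Binding potency was derived from the final fluorescence.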
Turning to `COCCN(CCOC)c1nc(N2CCC(OC)CC2)c2nc(N3CCn4cncc4C3)nc(N3CCN(C)C(=O)C3)c2n1` [Compound 297, 4-(6-(bis(2-methoxyethyl)amino)-2-(5,6-dihydroimidazo[1,5-a]pyrazin-7(8H)-yl)-8-(4-methoxypiperidin-1-yl)pyrimido[5,4-d]pyrimidin-4-yl)-1-methylpiperazin-2-one], the IC50 lay in the range of 0.1 to 0.5 µM. In the case of `COCCN(CCOC)c1nc(N2CCC(OC)CC2)c2nc(N(CCOC)CCOC)nc(N(C)CCO)c2n1` [Compound 112, 2-((2,6-bis(bis(2-methoxyethyl)amino)-8-(4-methoxypiperidin-1-yl)pyrimido[5,4-d]pyrimidin-4-yl)(methyl)amino)ethanol] it was 0.1 to 0.5 µM; in that of `COCCN(CCOC)c1nc(N2CCN(C)C(=O)C2)c2nc(N(CCOC)CCOC)nc(N(C)Cc3cccc(F)c3)c2n1` [Compound 233, 4-(2,6-bis(bis(2-methoxyethyl)amino)-8-((3-fluorobenzyl)(methyl)amino)pyrimido[5,4-d]pyrimidin-4-yl)-1-methylpiperazin-2-one], less than 0.1 µM.

The compound `COCCN(CCOC)c1nc(N2CCN(C)C(=O)C2)c2nc(N(CCOC)CCOC)nc(NCc3cccc(S(N)(=O)=O)c3)c2n1` [Compound 204, 3-(((2,6-bis(bis(2-methoxyethyl)amino)-8-(4-methyl-3-oxopiperazin-1-yl)pyrimido[5,4-d]pyrimidin-4-yl)amino)methyl)benzenesulfonamide] displayed a concentration for half-maximal inhibition (IC50) of 0.1 to 0.5 µM. The result for `COCCN(Cc1ccc(C(=O)O)c(C(F)(F)F)c1)c1nc(N2CCN(C)C(=O)C2)c2nc(N(CCOC)CCOC)nc(N3CCC(OC)CC3)c2n1` [Compound 339, 4-(((6-(bis(2-methoxyethyl)amino)-8-(4-methoxypiperidin-1-yl)-4-(4-methyl-3-oxopiperazin-1-yl)pyrimido[5,4-d]pyrimidin-2-yl)(2-methoxyethyl)amino)methyl)-2-(trifluoromethyl)benzoic acid] reads less than 0.1 µM; that for `COCCN(CCOC)c1nc(N2CCC(OC)CC2)c2nc(N(CCOC)CCOC)nc(NC3CCCC3)c2n1` [Compound 167, N4-cyclopentyl-N2,N2,N6,N6-tetrakis(2-methoxyethyl)-8-(4-methoxypiperidin-1-yl)pyrimido[5,4-d]pyrimidine-2,4,6-triamine], 0.1 to 0.5 µM. The result for `COCCN(CCOC)c1nc(N2CCC(OC)C2)c2nc(N(CCOC)CCOC)nc(N3CCC(OC)CC3)c2n1` (stereo not shown) [Compound 80, N2,N2,N6,N6-tetrakis(2-methoxyethyl)-4-(4-methoxypiperidin-1-yl)-8-(3-methoxypyrrolidin-1-yl)pyrimido[5,4-d]pyrimidine-2,6-diamine] reads 0.1 to 0.5 µM. Turning to `COCCN(CCOC)c1nc(N2CCC(OC)CC2)c2nc(N(CCOC)CCC(N)=O)nc(N3CCC(OC)CC3)c2n1` [Compound 197, 3-((6-(bis(2-methoxyethyl)amino)-4,8-bis(4-methoxypiperidin-1-yl)pyrimido[5,4-d]pyrimidin-2-yl)(2-methoxyethyl)amino)propanamide], the concentration for half-maximal inhibition (IC50) is 0.5 to 1 µM. `COCCN(Cc1cc(F)c(C(=O)O)c(F)c1)c1nc(N2CCN(C)C(=O)C2)c2nc(N(CCOC)CCOC)nc(N3CCC(OC)CC3)c2n1` [Compound 340, 4-(((6-(bis(2-methoxyethyl)amino)-8-(4-methoxypiperidin-1-yl)-4-(4-methyl-3-oxopiperazin-1-yl)pyrimido[5,4-d]pyrimidin-2-yl)(2-methoxyethyl)amino)methyl)-2,6-difluorobenzoic acid] displayed an IC50 of less than 0.1 µM. Take `COCCN(CCOC)c1nc(N2CC(F)C2)c2nc(N(CCOC)CCOC)nc(N3CCC(OC)CC3)c2n1` [Compound 99, 4-(3-fluoroazetidin-1-yl)-N2,N2,N6,N6-tetrakis(2-methoxyethyl)-8-(4-methoxypiperidin-1-yl)pyrimido[5,4-d]pyrimidine-2,6-diamine]: the half-inhibitory concentration (IC50) lay within 0.1 to 0.5 µM. Consider `COCCN(CCOC)c1nc(N2CCN(c3ncn(C)n3)CC2)c2nc(N(CCOC)CCOC)nc(NCc3ccc(F)c(F)c3)c2n1` [Compound 227, N4-(3,4-difluorobenzyl)-N2,N2,N6,N6-tetrakis(2-methoxyethyl)-8-(4-(1-methyl-1H-1,2,4-triazol-3-yl)piperazin-1-yl)pyrimido[5,4-d]pyrimidine-2,4,6-triamine], for which the IC50 is less than 0.1 µM.

The compound `COCCN(CCOC)c1nc(N2CCC(OC)CC2)c2nc(N(CCO)Cc3ccc(OC)c(OC)c3OC)nc(N3CCC(OC)CC3)c2n1` [Compound 185, 2-((6-(bis(2-methoxyethyl)amino)-4,8-bis(4-methoxypiperidin-1-yl)pyrimido[5,4-d]pyrimi<din-2-yl)(2,3,4-trimethoxybenzyl)amino)ethanol] gave an IC50 of less than 0.1 µM. In turn, `COCCN(CCCS(C)(=O)=O)c1nc(N2CCN(C)C(=O)C2)c2nc(N(CCOC)CCOC)nc(N3CCC(OC)CC3)c2n1` [Compound 289, 4-(6-(bis(2-methoxyethyl)amino)-2-((2-methoxyethyl)(3-(methylsulfonyl)propyl)amino)-8-(4-methoxypiperidin-1-yl)pyrimido[5,4-d]pyrimidin-4-yl)-1-methylpiperazin-2-one] yielded a 50% inhibitory concentration (IC50) of less than 0.1 µM. On to `COCCN(CCOC)c1nc(N2CCC(OC)CC2)c2nc(N(CCO)CCO)nc(N3CC(=O)N(C)C(C)C3)c2n1` (stereo not shown) [Compound 309, 4-(2-(bis(2-hydroxyethyl)amino)-6-(bis(2-methoxyethyl)amino)-8-(4-methoxypiperidin-1-yl)pyrimido[5,4-d]pyrimidin-4-yl)-1,6-dimethylpiperazin-2-one], for which the half-inhibitory concentration (IC50) fell in the range of 0.1 to 0.5 µM. Regarding `COCCCN(CCCOC)c1nc(N2CCC(OC)CC2)c2nc(N(CCCO)CCCO)nc(N3CCN(C)C(=O)C3)c2n1` [Compound 329, 4-(2-(bis(3-hydroxypropyl)amino)-6-(bis(3-methoxypropyl)amino)-8-(4-methoxypiperidin-1-yl)pyrimido[5,4-d]pyrimidin-4-yl)-1-methylpiperazin-2-one], the concentration for half-maximal inhibition (IC50) was less than 0.1 µM.

For the compound `COCCN(CCOC)c1nc(N2CCC(OC)CC2)c2nc(N(CCOC)CCOC)nc(N3CCC(F)CC3)c2n1` [Compound 108, 4-(4-fluoropiperidin-1-yl)-N2,N2,N6,N6-tetrakis(2-methoxyethyl)-8-(4-methoxypiperidin-1-yl)pyrimido[5,4-d]pyrimidine-2,6-diamine], the IC50 was less than 0.1 µM. In the case of `COCCN(CCOC)c1nc(N2CCn3nncc3C2)c2nc(N(CCOC)CCOC)nc(N3CCN(C)C(=O)C3)c2n1` [Compound 251, 4-(2,6-bis(bis(2-methoxyethyl)amino)-8-(6,7-dihydro-[1,2,3]triazolo[1,5-a]pyrazin-5(4H)-yl)pyrimido[5,4-d]pyrimidin-4-yl)-1-methylpiperazin-2-one], the IC50 is 0.1 to 0.5 µM.

As to `COCCN(CCOC)c1nc(N2CCC(OC)CC2)c2nc(N(CCO)CCO)nc(N3CCc4oc(C)nc4C3)c2n1` [Compound 322, 2,2′-((6-(bis(2-methoxyethyl)amino)-8-(4-methoxypiperidin-1-yl)-4-(2-methyl-6,7-dihydrooxazolo[4,5-c]pyridin-5(4H)-yl)pyrimido[5,4-d]pyrimidin-2-yl)azanediyl)bis(ethan-1-ol)], the half-inhibitory concentration (IC50) lay in the range of 0.1 to 0.5 µM. The result for `COCCN(CCOC)c1nc(N2CCC(OC)CC2)c2nc(N(CCOC)CCOC)nc(NCc3ccc(C)o3)c2n1` [Compound 161, N2,N2,N6,N6-tetrakis(2-methoxyethyl)-8-(4-methoxypiperidin-1-yl)-N4-((5-methylfuran-2-yl)methyl)pyrimido[5,4-d]pyrimidine-2,4,6-triamine] reads 0.1 to 0.5 µM.
